The values that follow are results of earlier work, collected in patent EP3663750B1, “SCAFFOLDED NUCLEIC ACID POLYMER PARTICLES AND METHODS OF MAKING AND USING” (Life Technologies Corporation, priority 2009, dated 2010).

The conditions of one series: Oil Soluble Azo Initiator Compounds; temperature at which the initiator has a half-life of 10h.
`CCC(C)(C#N)N=NC(C)(C#N)CC` (centres unmarked): the “10 hour half-life decomposition temperature” value is 67 °C. For the compound `CC(C)CC(C)(C#N)N=NC(C)(C#N)CC(C)C` (centres unmarked), the “10 hour half-life decomposition temperature” value is 51 °C. With `N#CC1(N=NC2(C#N)CCCCC2)CCCCC1`, the “10 hour half-life decomposition temperature” value was 88 °C. For the compound `CCCCNC(=O)C(C)(C)N=NC(C)(C)C(=O)NCCCC`, the “10 hour half-life decomposition temperature” value was 110 °C. Take `C=CCNC(=O)C(C)(C)N=NC(C)(C)C(=O)NCC=C`: the “10 hour half-life decomposition temperature” value is 96 °C. For the compound `CC(C)(N=NC(C)(C)C(=O)NC1CCCCC1)C(=O)NC1CCCCC1`, the “10 hour half-life decomposition temperature” value is 111 °C.

The same series, now with this note: Water Soluble Azo Initiator Compounds; temperature at which the initiator has a half-life of 10h.
Take `CC(C)(N=NC(C)(C)C(=O)NCCO)C(=O)NCCO`: the “10 hour half-life decomposition temperature” value is 87 °C. As for `CC(C)(N=NC(C)(C)C(=N)N1CCCC1)C(=N)N1CCCC1`, the “10 hour half-life decomposition temperature” value was 67 °C.

`CC(C)(N=NC(C)(C)C1=NCCN1CCO)C1=NCCN1CCO`: the “10 hour half-life decomposition temperature” value was 60 °C.

The series is the same for the next values; noted with them: buffer.
As for `CC(C)(N=NC(C)(C)C1=NCCN1)C1=NCCN1` [drawing 1], the “10 hour half-life decomposition temperature” value was 44 °C. Turning to `CC(C)(N=NC(C)(C)C1=NCCN1)C1=NCCN1` [drawing 6], the “10 hour half-life decomposition temperature” value was 61 °C.
